Consider two molecules from patent US20110230476A1, “PI3 KINASE INHIBITORS AND USES THEREOF” (AVILA THERAPEUTICS, INC., priority 2009, published 2011).

The term GI50 denotes the concentration that inhibits growth by half. Low values mean more potent growth inhibition, high ones less potent growth inhibition. By EC50 is commonly meant the concentration giving half of the maximal effect. A high value points to a need for much substance.

The subject of one assay is SKOV3 cells. Briefly: GI50 determinations in SKOV3 cells. It counts as cell-based. To be noted: Homo sapiens, SK-OV-3.
For the next assay, the target named is PI3Kα (Homo sapiens, UniProt P42336). Briefly: Mass spectrometry of intact PI3Kα (Millipore, 14-602), 1 hr incubation. It counts as binding. Set-up: purchased Millipore 14-602. To be noted: 10× fold excess of compound, MALDI. The protocol: Mass Spectrometry for PI3K
PI3Kα, sequence (P42336 whole entry): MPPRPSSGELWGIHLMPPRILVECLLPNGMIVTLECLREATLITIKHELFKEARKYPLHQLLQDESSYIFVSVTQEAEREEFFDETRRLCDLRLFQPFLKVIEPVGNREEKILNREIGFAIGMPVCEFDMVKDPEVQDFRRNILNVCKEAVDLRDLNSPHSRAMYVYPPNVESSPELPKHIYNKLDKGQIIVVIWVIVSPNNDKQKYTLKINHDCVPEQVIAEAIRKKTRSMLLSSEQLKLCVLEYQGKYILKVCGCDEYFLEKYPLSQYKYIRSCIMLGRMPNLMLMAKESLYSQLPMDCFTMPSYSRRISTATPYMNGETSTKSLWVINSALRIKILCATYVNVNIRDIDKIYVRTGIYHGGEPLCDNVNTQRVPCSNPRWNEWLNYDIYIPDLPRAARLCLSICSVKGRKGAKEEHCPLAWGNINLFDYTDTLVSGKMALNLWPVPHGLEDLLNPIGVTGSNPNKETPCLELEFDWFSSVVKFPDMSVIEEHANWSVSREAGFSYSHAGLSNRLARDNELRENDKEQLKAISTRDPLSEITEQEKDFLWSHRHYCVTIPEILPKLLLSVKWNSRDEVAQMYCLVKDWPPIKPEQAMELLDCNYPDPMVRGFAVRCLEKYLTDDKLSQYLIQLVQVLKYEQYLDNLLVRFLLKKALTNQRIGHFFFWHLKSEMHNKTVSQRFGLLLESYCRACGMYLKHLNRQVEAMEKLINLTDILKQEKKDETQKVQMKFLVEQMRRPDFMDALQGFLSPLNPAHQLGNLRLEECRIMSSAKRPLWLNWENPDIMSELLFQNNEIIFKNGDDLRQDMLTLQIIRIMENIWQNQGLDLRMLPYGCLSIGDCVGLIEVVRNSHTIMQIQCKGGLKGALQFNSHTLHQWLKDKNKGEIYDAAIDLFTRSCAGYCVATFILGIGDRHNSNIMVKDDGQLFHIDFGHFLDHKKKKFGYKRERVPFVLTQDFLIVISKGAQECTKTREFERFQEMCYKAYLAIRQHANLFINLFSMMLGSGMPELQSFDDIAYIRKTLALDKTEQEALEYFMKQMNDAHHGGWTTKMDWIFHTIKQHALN
PI3Kα, sequence (P27986 whole entry partner): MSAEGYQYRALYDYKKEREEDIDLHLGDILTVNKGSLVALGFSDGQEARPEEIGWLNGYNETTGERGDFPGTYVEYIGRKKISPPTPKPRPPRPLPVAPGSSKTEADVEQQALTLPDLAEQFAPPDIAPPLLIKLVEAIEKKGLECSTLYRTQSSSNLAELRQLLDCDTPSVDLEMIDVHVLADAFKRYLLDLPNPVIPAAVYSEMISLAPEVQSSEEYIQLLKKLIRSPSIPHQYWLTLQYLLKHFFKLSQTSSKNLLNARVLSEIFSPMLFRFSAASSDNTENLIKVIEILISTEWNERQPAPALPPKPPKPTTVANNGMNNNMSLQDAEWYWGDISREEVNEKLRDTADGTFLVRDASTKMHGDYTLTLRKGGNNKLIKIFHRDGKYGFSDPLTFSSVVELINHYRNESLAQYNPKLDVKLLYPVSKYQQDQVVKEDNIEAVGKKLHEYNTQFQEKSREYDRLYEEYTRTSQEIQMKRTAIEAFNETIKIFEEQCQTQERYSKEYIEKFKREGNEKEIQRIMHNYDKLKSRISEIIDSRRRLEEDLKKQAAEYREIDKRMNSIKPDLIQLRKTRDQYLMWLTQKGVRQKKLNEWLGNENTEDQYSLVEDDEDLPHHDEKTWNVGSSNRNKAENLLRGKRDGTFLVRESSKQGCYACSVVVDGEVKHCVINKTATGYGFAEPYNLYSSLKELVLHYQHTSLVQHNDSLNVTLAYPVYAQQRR
Aliquots (5 μl) of the samples were diluted with 15 μl of 0.2% TFA prior to micro C4 ZipTipping directly onto the MALDI target using Sinapinic acid as the desorption matrix (10 mg/ml in 0.1% TFA:Acetonitrile 50:50).

The next assay has as its target T1, PI3Kγ (p120γ) (Homo sapiens, UniProt P48736).
T1 construct: purchased BPS Bioscience (San Diego, Calif.) or Millipore (Billerica, Mass.)
Briefly: HTRF assay, potency against active PI3Kγ. The assay is classed as biochemical. The conditions noted are these: [ATP]=50 μM, [di-C8-PIP2]=10 μM, 30 min pre-incubation, read-out: PI3Kγ Inhibition. In a few lines: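 End-point competition HTRF: enzyme (p110β/p85α 0.75 nM; p120γ 2-2.5 nM) with 10 μM di-C8-PIP2 pre-incubated 30 min at 25° C with compound, then 50 μM ATP added for 30-60 min at 25° C. Stopped, detected after 1 and 18 h; IC50 from variable-slope fit.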
In general terms: Time-resolved FRET reads energy transfer from a long-lived donor to a nearby acceptor.

A further assay relates to HCT116 cells. Description: HCT-116 cell proliferation assay. It counts as cell-based. To be noted: Homo sapiens, 72 hours, Cell Titer Glo. The protocol:
HCT-116 Cell Proliferation Assay
For the HCT116 Proliferation Assay, 3000 cells per well were plated in Growth Media (DMEM, 10% FBS, 1% 1-glutamine, 1% penicillin/streptomycin) in 96 well plates. The following day, compounds were added to duplicate wells at concentrations of 10 uM and 3-fold dilutions down to 40 nM. The plates were returned to the incubator for 72 hours and then the assays were developed using Cell Titer Glo (Promega, Madison, Wis.) according to manufacturer's instructions.
For orientation: ATP-based viability assays read luminescence as a measure of living cells.

The target in a further assay is T2, PI3Kα (p110α/p85α) (Homo sapiens, UniProt P42336).
T2 construct: purchased BPS Bioscience (San Diego, Calif.) or Millipore (Billerica, Mass.)
T2 sequence (P42336 whole entry): as the sequence (P42336 whole entry) above
T2 sequence (P27986 whole entry partner): as the sequence (P27986 whole entry partner) above
Briefly: HTRF assay, potency against active PI3Kα. It counts as biochemical. To be noted: HTRF; [ATP]=50 μM, [di-C8-PIP2]=10 μM; 30 min pre-incubation; read-out: PI3Kα Inhibition. In short, it runs like this:
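Active p110/p85α lipid kinase reactions were started with ATP and run 30-60 minutes at 25 °C, then stopped and developed with HTRF detection mix. HTRF ratio converted to % inhibition against ±enzyme controls; IC50 from log[inhibitor] vs response, variable slope.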

“Also recorded” adds a separate entry of the source.

T1 sequence (P48736 whole entry): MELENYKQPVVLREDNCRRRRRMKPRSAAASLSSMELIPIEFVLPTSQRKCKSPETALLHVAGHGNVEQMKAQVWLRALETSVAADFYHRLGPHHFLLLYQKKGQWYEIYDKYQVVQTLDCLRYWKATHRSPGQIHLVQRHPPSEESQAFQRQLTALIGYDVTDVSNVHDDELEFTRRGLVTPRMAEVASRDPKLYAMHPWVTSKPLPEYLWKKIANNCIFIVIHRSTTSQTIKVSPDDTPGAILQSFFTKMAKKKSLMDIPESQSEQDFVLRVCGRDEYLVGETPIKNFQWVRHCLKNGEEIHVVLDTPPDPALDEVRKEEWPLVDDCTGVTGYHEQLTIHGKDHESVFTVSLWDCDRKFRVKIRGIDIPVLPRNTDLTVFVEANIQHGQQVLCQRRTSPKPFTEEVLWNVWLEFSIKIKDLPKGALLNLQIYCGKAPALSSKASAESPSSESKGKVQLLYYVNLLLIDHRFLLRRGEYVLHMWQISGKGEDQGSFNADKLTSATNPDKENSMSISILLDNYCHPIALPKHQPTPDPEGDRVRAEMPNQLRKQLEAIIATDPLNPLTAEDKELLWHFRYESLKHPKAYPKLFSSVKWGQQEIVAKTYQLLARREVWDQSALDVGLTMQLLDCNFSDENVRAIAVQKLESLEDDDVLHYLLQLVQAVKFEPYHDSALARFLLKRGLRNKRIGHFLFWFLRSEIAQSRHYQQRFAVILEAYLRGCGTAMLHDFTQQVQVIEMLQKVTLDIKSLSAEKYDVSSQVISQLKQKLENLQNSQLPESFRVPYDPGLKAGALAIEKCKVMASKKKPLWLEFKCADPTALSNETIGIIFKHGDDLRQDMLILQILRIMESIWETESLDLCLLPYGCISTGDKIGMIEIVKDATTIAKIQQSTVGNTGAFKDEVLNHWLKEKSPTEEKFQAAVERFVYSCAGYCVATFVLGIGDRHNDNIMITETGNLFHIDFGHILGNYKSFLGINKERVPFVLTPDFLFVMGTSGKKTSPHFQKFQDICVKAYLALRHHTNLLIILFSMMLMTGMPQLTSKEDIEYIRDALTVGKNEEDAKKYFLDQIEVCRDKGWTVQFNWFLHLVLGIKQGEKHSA

On to `CC(C)=CC(=O)CCC(=O)N1CCN(Cc2cc3nc(-c4cccc5[nH]ncc45)nc(N4CCOCC4)c3s2)CC1` [II-a-3, 1-(4-((2-(1H-indazol-4-yl)-4-morpholinothieno[3,2-d]pyrimidin-6-yl)methyl)piperazin-1-yl)-6-methylhept-5-ene-1,4-dione], for which the GI50 in the assay with SKOV3 cells (SKOV3 cells, 96 hours, Cell Titer Glo) was in the range of 10 to 100 nM; in the assay with SKOV3 cells (Table 19, assay not given, classes agree with Table 26), 10 to 100 nM. In addition, on PI3Kα, the “covalent modification of PI3Kα” value is given as “complete modification; also recorded: covalent modification”.

With `C/C=C/C(=O)CCC(=O)N1CCN(Cc2cc3nc(-c4cccc5[nH]ncc45)nc(N4CCOCC4)c3s2)CC1` [II-a-36, (E)-1-(4-((2-(1H-indazol-4-yl)-4-morpholinothieno[3,2-d]pyrimidin-6-yl)methyl)piperazin-1-yl)hept-5-ene-1,4-dione], the IC50 was over 1000 nM at PI3Kγ (p120γ) and under 10 nM on PI3Kα (p110α/p85α). In the assay on HCT116 cells, the EC50 was in the range of 1000 to 10000 nM.
